Results reported in PubChem BioAssay (NCI).
“And” between values parts separate entries of the source, which are not always exact repeats. Identical values can stand only once.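 Exposure lasted 48 hours, with cells grown in 96-well plates and compounds tested at five concentrations. GI50 is the concentration that inhibits growth by half. Definition used: TGI = concentration required for complete inhibition of growth.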

Tests used:
Experiment in all cases: NCI tumour cell line growth inhibition, 48 h
M19-MEL melanoma = tested on: M19-MEL melanoma
XF 498 CNS = tested on: XF 498 CNS
KM20L2 colon = tested on: KM20L2 colon
SNB-78 CNS = tested on: SNB-78 CNS
RXF-631 renal = tested on: RXF-631 renal
DLD-1 colon = tested on: DLD-1 colon
P388 leukemia = tested on: P388 leukemia
SN12K1 renal = tested on: SN12K1 renal
HOP-18 NSCLC = tested on: HOP-18 NSCLC
P388/ADR leukemia = tested on: P388/ADR leukemia

Row | Compound | TGI (M19-MEL melanoma) | TGI (XF 498 CNS) | TGI (KM20L2 colon) | TGI (SNB-78 CNS) | TGI (RXF-631 renal) | TGI (DLD-1 colon) | TGI (P388 leukemia) | TGI (SN12K1 renal) | TGI (HOP-18 NSCLC) | TGI (P388/ADR leukemia) | GI50 (HOP-18 NSCLC) | GI50 (P388/ADR leukemia) | GI50 (SNB-78 CNS) | GI50 (KM20L2 colon)
1 | CC12N=NN(c3ccc([N+](=O)[O-])cc3)C1(O)c1ccccc1C2=O (centres undefined) | > 100 µM | > 100 µM | > 100 µM |  |  |  |  |  |  |  |  |  |  | 
2 | CC(=O)Nc1ccc(C(=O)NN2C(=O)C(Cl)C2c2ccc([N+](=O)[O-])cc2)cc1 (centres undefined) | > 100 µM | > 100 µM | > 100 µM | > 100 µM |  |  |  |  |  |  |  |  |  | 
3 | Nc1cccc2c1C(=O)c1cccc(N)c1C2=O | > 100 µM | 69.4 µM | > 100 µM | > 100 µM | > 100 µM | > 100 µM |  |  |  |  |  |  |  | 
4 | Cc1ccc(C(C)(C)C[P+](C)(c2ccccc2)c2ccccc2)cc1 | > 89 µM | 12.9 µM | > 88.8 µM | 88.1 µM |  | > 100 µM | 12.3 µM | > 90.7 µM | > 47.8 µM | > 100 µM |  |  |  | 
5 | [Cl][Pt+2][Cl].[NH-]C1CCCCC1[NH-] (centres undefined) | 23.9 µM and 25.7 µM and 10.6 µM |  | 44.6 µM and > 52.9 µM and 29.6 µM | > 100 µM |  | > 100 µM | 6.91 µM and 7.39 µM and 2.14 µM | > 100 µM | > 100 µM | 98.9 µM and > 100 µM and > 52.4 µM | 25.6 µM and > 100 µM and 28.4 µM | 4.69 µM and 2.22 µM and 0.629 µM | 29 µM and 30 µM and 11.5 µM | 8.07 µM and 2.19 µM and 1.36 µM
6 | COC(=O)C1CCC(=O)N1C(=O)Cc1ccc(OC)cc1 (centres undefined) | > 100 µM | > 100 µM | > 100 µM | > 100 µM |  |  |  |  |  |  |  |  |  | 
7 | OCC1OC(n2cnc3cncnc32)C(O)C1O (centres undefined) | 14.1 µM |  | 5.17 µM | 39.1 µM |  | 1.82 µM | 1.59 µM | 3.49 µM | 8.15 µM | 1.46 µM |  |  |  | 
8 | CC(C)=CCC/C(C)=C/CC/C(C)=C/Cc1c(O)c2ccccc2oc1=O | > 100 µM |  | > 100 µM | > 100 µM |  | > 100 µM |  |  | > 100 µM |  |  |  |  | 
9 | O=Cc1ccccc1OCCOc1cc(OCCOc2ccccc2C=O)c(OCCOc2ccccc2C=O)cc1OCCOc1ccccc1C=O | > 100 µM | > 71.5 µM | > 100 µM | > 100 µM |  | > 100 µM |  |  | > 100 µM |  |  |  |  | 
10 | Cc1ccccc1-n1c(C)nc2c1C(=O)c1ccccc1C2=O | 48.5 µM |  |  | > 100 µM |  |  |  |  |  |  |  |  |  | 
